Data as given in ChEMBL document CHEMBL3046635, “Synthesis and Herbicidal Activity of New Pyrazole-4-carboxamide Derivatives” (J Pestic Sci, 2004).
Calls of active or inactive are those of the source.

Each molecule was assayed on Oryza sativa (assay: Phytotoxicity against Oryza sativa cv. Koshihikari (rice) at 2000 g a.i/ha measured after 14 days). Conditions: in vivo, 336 h.
Format: organism-based
For `CCCN(CC)C(=O)c1cn(C)nc1OCc1cc(F)cc(F)c1`, the Activity was “Non-toxic”.

The molecules below were run on Echinochloa oryzicola (assay: Pre-emergence herbicidal activity against Echinochloa oryzicola at 2000 g a.i/ha measured after 14 days). Conditions: not given.
Format: functional, organism-based
For `CCCN(CC)C(=O)c1cn(C)nc1OCc1cc(F)cc(F)c1`, the Activity was “Active”.

The molecules below were run on Eleocharis acicularis (assay: Post-emergence herbicidal activity against Eleocharis acicularis assessed as bleaching of stem/leaf parts). Conditions: not given.
Format: functional, organism-based
With `CCCN(CC)C(=O)c1cn(C)nc1OCc1cc(F)cc(F)c1` the Activity was “Active”.

The molecules below were run on Eleocharis acicularis (assay: Pre-emergence herbicidal activity against Eleocharis acicularis assessed as bleaching of stem/leaf parts). Conditions: not given.
Format: functional, organism-based
For `CCCN(CC)C(=O)c1cn(C)nc1OCc1cc(F)cc(F)c1`, the Activity was “Active”.

Each molecule was assayed on Ammannia multiflora (assay: Pre-emergence herbicidal activity against Ammannia multiflora assessed as bleaching of stem/leaf parts). Conditions: not given.
Format: functional, organism-based
In the case of `CCCN(CC)C(=O)c1cn(C)nc1OCc1cc(F)cc(F)c1`, the Activity is reported as “Active”.

What follows are molecules tested on Rotala indica (assay: Pre-emergence herbicidal activity against Rotala indica assessed as bleaching of stem/leaf parts). Conditions: not given.
Format: functional, organism-based
For `CCCN(CC)C(=O)c1cn(C)nc1OCc1cc(F)cc(F)c1`, the Activity was “Active”.

Each molecule was assayed on Elatine triandra (assay: Pre-emergence herbicidal activity against Elatine triandra assessed as bleaching of stem/leaf parts). Conditions: not given.
Format: functional, organism-based
`CCCN(CC)C(=O)c1cn(C)nc1OCc1cc(F)cc(F)c1` was tested, and the Activity was “Active”.

Each molecule was assayed on Lindernia procumbens (assay: Pre-emergence herbicidal activity against Lindernia procumbens assessed as bleaching of stem/leaf parts). Conditions: not given.
Format: functional, organism-based
With `CCCN(CC)C(=O)c1cn(C)nc1OCc1cc(F)cc(F)c1` the Activity was “Active”.

What follows are molecules tested on Schoenoplectiella juncoides (assay: Pre-emergence herbicidal activity against Schoenoplectiella juncoides assessed as bleaching of stem/leaf parts). Conditions: not given.
Format: functional, organism-based
`CCCN(CC)C(=O)c1cn(C)nc1OCc1cc(F)cc(F)c1` was tested, and the Activity was “Active”.

What follows are molecules tested on Pontederia vaginalis (assay: Pre-emergence herbicidal activity against Monochoria vaginalis assessed as bleaching of stem/leaf parts). Conditions: not given.
Format: functional, organism-based
`CCCN(CC)C(=O)c1cn(C)nc1OCc1cc(F)cc(F)c1` was tested, and the Activity was “Active”.

The molecules below were run on Cyperus difformis (assay: Pre-emergence herbicidal activity against Cyperus difformis assessed as bleaching of stem/leaf parts). Conditions: not given.
Format: functional, organism-based
With `CCCN(CC)C(=O)c1cn(C)nc1OCc1cc(F)cc(F)c1` the Activity was “Active”.

What follows are molecules tested on Echinochloa oryzicola (assay: Pre-emergence herbicidal activity against Echinochloa oryzicola assessed as bleaching of stem/leaf parts). Conditions: not given.
Format: functional, organism-based
`CCCN(CC)C(=O)c1cn(C)nc1OCc1cc(F)cc(F)c1` was tested, and the Activity was “Active”.

What follows are molecules tested on Ammannia multiflora (assay: Post-emergence herbicidal activity against Ammannia multiflora assessed as bleaching of stem/leaf parts). Conditions: not given.
Format: functional, organism-based
`CCCN(CC)C(=O)c1cn(C)nc1OCc1cc(F)cc(F)c1` was tested, and the Activity was “Active”.

These molecules were tested on Elatine triandra (assay: Post-emergence herbicidal activity against Elatine triandra assessed as bleaching of stem/leaf parts). Conditions: not given.
Format: functional, organism-based
For `CCCN(CC)C(=O)c1cn(C)nc1OCc1cc(F)cc(F)c1`, the Activity was “Active”.

What follows are molecules tested on Rotala indica (assay: Post-emergence herbicidal activity against Rotala indica assessed as bleaching of stem/leaf parts). Conditions: not given.
Format: functional, organism-based
In the case of `CCCN(CC)C(=O)c1cn(C)nc1OCc1cc(F)cc(F)c1`, the Activity is reported as “Active”.

The molecules below were run on Schoenoplectiella juncoides (assay: Post-emergence herbicidal activity against Schoenoplectiella juncoides assessed as bleaching of stem/leaf parts). Conditions: not given.
Format: functional, organism-based
With `CCCN(CC)C(=O)c1cn(C)nc1OCc1cc(F)cc(F)c1` the Activity was “Active”.

Each molecule was assayed on Lindernia procumbens (assay: Post-emergence herbicidal activity against Lindernia procumbens assessed as bleaching of stem/leaf parts). Conditions: not given.
Format: functional, organism-based
In the case of `CCCN(CC)C(=O)c1cn(C)nc1OCc1cc(F)cc(F)c1`, the Activity is reported as “Active”.

The molecules below were run on Pontederia vaginalis (assay: Post-emergence herbicidal activity against Monochoria vaginalis assessed as bleaching of stem/leaf parts). Conditions: not given.
Format: functional, organism-based
For `CCCN(CC)C(=O)c1cn(C)nc1OCc1cc(F)cc(F)c1`, the Activity was “Active”.

The molecules below were run on Cyperus difformis (assay: Post-emergence herbicidal activity against Cyperus difformis assessed as bleaching of stem/leaf parts). Conditions: not given.
Format: functional, organism-based
In the case of `CCCN(CC)C(=O)c1cn(C)nc1OCc1cc(F)cc(F)c1`, the Activity is reported as “Active”.

The molecules below were run on Echinochloa oryzicola (assay: Post-emergence herbicidal activity against Echinochloa oryzicola assessed as bleaching of stem/leaf parts). Conditions: not given.
Format: functional, organism-based
With `CCCN(CC)C(=O)c1cn(C)nc1OCc1cc(F)cc(F)c1` the Activity was “Active”.

The molecules below were run on Eleocharis acicularis (assay: Pre-emergence herbicidal activity against Eleocharis acicularis at 2000 g a.i/ha measured after 14 days). Conditions: not given.
Format: functional, organism-based
With `CCCN(CC)C(=O)c1cn(C)nc1OCc1cc(F)cc(F)c1` the Activity was “inactive”.

What follows are molecules tested on Schoenoplectiella juncoides (assay: Pre-emergence herbicidal activity against Schoenoplectiella juncoides at 2000 g a.i/ha measured after 14 days). Conditions: not given.
Format: functional, organism-based
With `CCCN(CC)C(=O)c1cn(C)nc1OCc1cc(F)cc(F)c1` the Activity was “Active”.

Each molecule was assayed on Pontederia vaginalis (assay: Pre-emergence herbicidal activity against Monochoria vaginalis at 2000 g a.i/ha measured after 14 days). Conditions: not given.
Format: functional, organism-based
For `CCCN(CC)C(=O)c1cn(C)nc1OCc1cc(F)cc(F)c1`, the Activity was “Active”.

What follows are molecules tested on Ammannia multiflora (assay: Pre-emergence herbicidal activity against Ammannia multiflora at 2000 g a.i/ha measured after 14 days). Conditions: not given.
Format: functional, organism-based
In the case of `CCCN(CC)C(=O)c1cn(C)nc1OCc1cc(F)cc(F)c1`, the Activity is reported as “Active”.

What follows are molecules tested on Rotala indica (assay: Pre-emergence herbicidal activity against Rotala indica at 2000 g a.i/ha measured after 14 days). Conditions: not given.
Format: functional, organism-based
With `CCCN(CC)C(=O)c1cn(C)nc1OCc1cc(F)cc(F)c1` the Activity was “Active”.

These molecules were tested on Elatine triandra (assay: Pre-emergence herbicidal activity against Elatine triandra at 2000 g a.i/ha measured after 14 days). Conditions: not given.
Format: functional, organism-based
With `CCCN(CC)C(=O)c1cn(C)nc1OCc1cc(F)cc(F)c1` the Activity was “Active”.

What follows are molecules tested on Lindernia procumbens (assay: Pre-emergence herbicidal activity against Lindernia procumbens at 2000 g a.i/ha measured after 14 days). Conditions: not given.
Format: functional, organism-based
`CCCN(CC)C(=O)c1cn(C)nc1OCc1cc(F)cc(F)c1` was tested, and the Activity was “Active”.

Each molecule was assayed on Cyperus difformis (assay: Pre-emergence herbicidal activity against Cyperus difformis at 2000 g a.i/ha measured after 14 days). Conditions: not given.
Format: functional, organism-based
With `CCCN(CC)C(=O)c1cn(C)nc1OCc1cc(F)cc(F)c1` the Activity was “Active”.
